Data on three molecules can be found in patent US9464135B2, “Epithelial membrane protein-2 (EMP2) and proliferative vitroretinopathy (PVR)” (THE REGENTS OF THE UNIVERSITY OF CALIFORNIA, priority 2009, dated 2016).

Bounds are passed on as bounds.

Format in all cases: cell-based, human
One assay concerns ARPE-19/EMP2 siRNA cells. The assay is described as follows: Collagen gel contraction assay, ARPE-19/EMP2 siRNA cells. To be noted: 1 hour pretreatment, normalized to vehicle control, read-out: concentration required to achieve 50% inhibition of the gel contraction. As for the experimental part: (§1) Collagen gel contraction assays were performed as previously reported (Morales S A et al., Exp Eye Res, 85(6):790-798 (2007)). Briefly, collagen gels were prepared by combining collagen type I (BD Biosciences) 10×DMEM, and DMEM/F12. The final concentration of the collagen type I mixture was 2.5 mg/mL. The collagen solution (500 μL) was added to each well of a 24-well plate and incubated at 37° C. in 5% CO2 for 1 hour. Cultured ARPE-19 cell with modified EMP2 levels were harvested and resuspended in serum-free DMEM/F12 at a final concentration of 5×10^5/mL. ARPE-19 cells with modified EMP2 levels were seeded onto the collagen gel at a concentration of 2.5×10^5 cells per well and the percentage of contraction was measured at 24 hours. The area of the each gel was obtained by taking a picture of the gel using image capture (Gel Doc 2000; Bio-Rad, Hercules, Calif.) and quantified with NIH Image J (developed by Wayne Rasband, National Institutes of Health, Bethesda, Md.; available at http://rsb.info.nih.gov/ij/index.html). […]
(§2) Collagen gels were prepared with collagen type I (BD Biosciences) in DMEM/F12 at a final concentration of 2.5 mg/mL. […] ARPE-19, ARPE-19/EMP2, and ARPE-19/EMP2 siRNA cells were seeded onto the collagen gels at a concentration of 2.5×10^5 cells per well and the percentage of contraction was measured at specific time intervals. […]

Assay [1] has as its system ARPE-19 cells. The assay is described as follows: Collagen gel contraction assay, ARPE-19 cells. To be noted: 1 hour pretreatment, normalized to vehicle control, read-out: concentration required to achieve 50% inhibition of the gel contraction. The protocol:
EMP2 diabody was recombinantly constructed using a phage library to select for reactivity against a human EMP2 peptide. […] Toxicity, adhesion, and migration were assessed respectively through flow cytometry using Annexin V, binding to collagen type 1, and a wound healing assay. Collagen gel contraction was assessed using an in vitro assay.
as §1

In a further assay the test system is ARPE-19/EMP2 cells. The assay is described as follows: Collagen gel contraction assay, ARPE-19/EMP2 cells. To be noted: overexpressing ARPE-19/EMP2 cells; 1 hour pretreatment; normalized to vehicle control; read-out: concentration required to achieve 50% inhibition of the gel contraction. The protocol: as §1, §2
The subject of assay [2] is ARPE-19 cells. As to the kind of experiment: Migration assay (scratch wound closure). To be noted: 50 ng/mL PDGF, 24 hours. As for the experimental part: ARPE-19 and ARPE-19/EMP2 cells were seeded onto a 24-well plate and incubated for 3 days until cells reached confluence. The cells were washed with PBS, serum-free medium was added, and the cells were incubated overnight. A 10 μL pipette tip was used to make a scratch in the monolayer and the medium was removed and replaced with serum-free medium or serum-free medium that contained 50 ng/mL PDGF. Pictures of the wound were taken at various time points, and the percentage closure of the scratch was quantified with NIH Image J software. The area of the scratch was measured immediately after the wound was created. Over time, cells migrated into the cleared area; however, a gap was still visible after 24 hours. The gap size was measured and divided by the original scratch size, and this value was expressed as percentage closure.

The subject of assay [3] is ARPE-19 and ARPE-19/EMP2 cells. As to the kind of experiment: Collagen production (Sircol Collagen Assay). To be noted: 10 ng/mL TGF-β, 72 hours, serum-free medium; compared with untreated condition. As for the experimental part:
ARPE-19 and ARPE-19/EMP2 cells were seeded onto a six-well plate at a concentration of 7×10^5 cells/mL in serum-free medium in the presence or absence of 10 ng/mL […]. The medium was collected after 72 hours. Secreted collagen was measured (Sircol Collagen Assay; Accurate Chemical & Scientific, Westbury, N.Y.). The collagen assay is a colorimetric procedure. The reaction product was quantified with the microplate reader at a wavelength of 540 nm. Each experiment included at least six replicates, and at least three independent experiments were performed. A Student's t-test (unpaired, one-tail) was used. P<0.05 was judged to be statistically significant.

With `CC(C)(C)n1nc(-c2ccc(Cl)cc2)c2c(N)ncnc21` [PP2], the figures for the IC50 with ARPE-19/EMP2 siRNA cells, in the assay with ARPE-19 cells [1] and in the assay with ARPE-19/EMP2 cells were less than 1000 nM, 2500 nM and 5000 nM, respectively.

PDGF: in the assay with ARPE-19 cells [2], the wound closure result is “stimulated wound closure”.

Regarding TGF-β, the collagen production result in assay [3] is listed as “increased collagen production”.
